Measurements as given in US9163021B2, “Pyrrolo[3,2-c]pyridine tropomyosin-related kinase inhibitors” (Pfizer Limited, priority 2012, dated 2015).

Target: TRKA (Homo sapiens (Human), UniProt P04629)
Assay: Isolated TRK enzyme assay (HTRF KinEASE-TK), PV3144 TrkA enzyme assay
Type: biochemical
Settings: arithmetic mean where more than one reading
How it was run: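 His-tagged TrkA cytoplasmic domain preactivated with ATP 20 min, then with compound 20 min at room temperature before 1 µM final biotin-TK substrate; HTRF 665/620 nm read.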

Chain of TRKA (P04629 441-796): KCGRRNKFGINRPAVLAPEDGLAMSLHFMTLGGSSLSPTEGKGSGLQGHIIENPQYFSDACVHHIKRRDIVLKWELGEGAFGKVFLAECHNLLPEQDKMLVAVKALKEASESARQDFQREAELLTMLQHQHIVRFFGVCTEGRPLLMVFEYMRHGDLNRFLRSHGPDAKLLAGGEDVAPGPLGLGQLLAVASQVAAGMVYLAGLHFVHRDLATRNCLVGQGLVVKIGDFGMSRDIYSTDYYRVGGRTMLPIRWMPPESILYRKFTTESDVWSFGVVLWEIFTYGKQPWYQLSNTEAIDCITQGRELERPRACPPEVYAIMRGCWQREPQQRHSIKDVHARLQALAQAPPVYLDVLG

Row | Compound | IC50
1 | CC(CO)n1cc(C(=O)c2cncc(NC(=O)Cc3cccc(C(F)(F)F)c3)c2)c2cnccc21 (single isomer, unassigned) [Example 36, N-(5-{[1-(1-hydroxypropan-2-yl)-1H-pyrrolo[3,2-c]pyridin-3-yl]carbonyl}pyridin-3-yl)-2-[3-(trifluoromethyl)phenyl]acetamide] | 44.7 nM
2 | CC(C)n1cc(C(=O)c2ccnc(NC(=O)Cc3nc(C(C)(C)C)nn3C)c2)c2cnccc21 [Example 171, 2(3-tert-butyl-1-methyl-1H-1,2,4-triazol-5-yl)-N-(4-{[1-(propan-2-yl)-1H-pyrrolo[3,2-c]pyridin-3-yl]carbonyl}pyridin-2-yl)acetamide] | 36.1 nM
3 | Cc1cc(C(C)C)nn1CC(=O)Nc1cc(C(=O)c2cn(C(C)C)c3ccncc23)ccn1 [Example 113, 2-[5-methyl-3-(propan-2-yl)-1H-pyrazol-1-yl]-N-(4-{[1-(propan-2-yl)-1H-pyrrolo[3,2-c]pyridin-3-yl]carbonyl}pyridin-2-yl)acetamide] | 20.4 nM
4 | CC(C)n1cc(C(=O)c2ccnc(NC(=O)Cn3cc(Cl)cn3)c2)c2cnccc21 [Example 99, 2-(4-chloro-1H-pyrazol-1-yl)-N-(4-{[1-(propan-2-yl)-1H-pyrrolo[3,2-c]pyridin-3-yl]carbonyl}pyridin-2-yl)acetamide] | 42.9 nM
5 | 2-(3-methoxyphenyl)-N-(5-{[1-(propan-2-yl)-1H-pyrrolo[3,2-c]pyridin-3-yl]carbonyl}pyridin-3-yl)acetamide [Example 129] | 96.2 nM
6 | CC(C)c1cn(CC(=O)Nc2cc(C(=O)c3cn(C4COC4)c4ccncc34)ccn2)nn1 [Example 199, N-(4-{[1-(oxetan-3-yl)-1H-pyrrolo[3,2-c]pyridin-3-yl]carbonyl}pyridin-2-yl)-2-[4-(propan-2-yl)-1H-1,2,3-triazol-1-yl]acetamide] | 186 nM
7 | O=C(Cc1ccc(F)cc1F)Nc1cc(C(=O)c2cn(C3COC3)c3ccncc23)ccn1 [Example 198, 2-(2,4-difluorophenyl)-N-(4-{[1-(oxetan-3-yl)-1H-pyrrolo[3,2-c]pyridin-3-yl]carbonyl}pyridin-2-yl)acetamide] | 105 nM
8 | CC(C)(CO)n1cc(C(=O)c2cc(NC(=O)Cn3ccc(C(F)(F)F)n3)ccn2)c2cnccc21 [Example 10, N-(2-{[1-(1-hydroxy-2-methylpropan-2-yl)-1H-pyrrolo[3,2-c]pyridin-3-yl]carbonyl}pyridin-4-yl)-2-[3-(trifluoromethyl)-1H-pyrazol-1-yl]acetamide] | 14 nM
9 | Cc1ccn(CC(=O)Nc2cc(C(=O)c3cn(C(C)C)c4ccncc34)ccn2)n1 [Example 109, 2-(3-methyl-1H-pyrazol-1-yl)-N-(4-{[1-(propan-2-yl)-1H-pyrrolo[3,2-c]pyridin-3-yl]carbonyl}pyridin-2-yl)acetamide] | 87.1 nM
10 | O=C(Cn1cc(C(F)(F)F)nn1)Nc1cc(C(=O)c2cn(CCO)c3ccncc23)ccn1 [Example 156, N-(4-{[1-(2-hydroxyethyl)-1H-pyrrolo[3,2-c]pyridin-3-yl]carbonyl}pyridin-2-yl)-2-[4-(trifluoromethyl)-1H-1,2,3-triazol-1-yl]acetamide] | 342 nM
11 | CC(C)n1cc(C(=O)c2ccnc(NC(=O)Cc3cccc(Cl)c3)c2)c2cnccc21 [Example 96, 2-(3-chlorophenyl)-N-(4-{[1-(propan-2-yl)-1H-pyrrolo[3,2-c]pyridin-3-yl]carbonyl}pyridin-2-yl)acetamide] | 13.8 nM
12 | Cc1ccnn1CC(=O)Nc1cc(C(=O)c2cn(C(C)C)c3ccncc23)ccn1 [Example 169, 2-(5-methyl-1H-pyrazol-1-yl)-N-(4-{[1-(propan-2-yl)-1H-pyrrolo[3,2-c]pyridin-3-yl]carbonyl}pyridin-2-yl)acetamide] | 83.6 nM
13 | O=C(Cc1ccc(F)cc1F)Nc1cc(C(=O)c2cn(CCO)c3ccncc23)ccn1 [Example 145, 2-(2,4-difluorophenyl)-N-(4-{[1-(2-hydroxyethyl)-1H-pyrrolo[3,2-c]pyridin-3-yl]carbonyl}pyridin-2-yl)acetamide] | 305 nM
14 | N#Cc1ccc(CC(=O)Nc2cc(C(=O)c3cn(C4COC4)c4ccncc34)ccn2)cc1C(F)(F)F [Example 221, 2-[4-cyano-3-(trifluoromethyl)phenyl]-N-(4-{[1-(oxetan-3-yl)-1H-pyrrolo[3,2-c]pyridin-3-yl]carbonyl}pyridin-2-yl)acetamide] | 138 nM

The remaining lines, values ahead:

Row | IC50 | Compound
15 | 531 nM | COCCn1nc(C(C)(C)C)nc1CC(=O)Nc1cncc(C(=O)c2cn(C(C)C)c3ccncc23)c1 [Example 44, 2-[3-tert-butyl-1-(2-methoxyethyl)-1H-1,2,4-triazol-5-yl]-N-(5-{[1-(propan-2-yl)-1H-pyrrolo[3,2-c]pyridin-3-yl]carbonyl}pyridin-3-yl)acetamide]
16 | 284 nM | Cc1ccn(CC(=O)Nc2cncc(C(=O)c3cn(C(C)C)c4ccncc34)c2)n1 [Example 134, 2-(3-methyl-1H-pyrazol-1-yl)-N-(5-{[1-(propan-2-yl)-1H-pyrrolo[3,2-c]pyridin-3-yl]carbonyl}pyridin-3-yl)acetamide]
17 | 149 nM | CC(C)n1ncc(CC(=O)Nc2cncc(C(=O)c3cn(C(C)CO)c4ccncc34)c2)c1C(F)(F)F (single isomer, unassigned) [Example 71, N-(5-{[1-(1-hydroxypropan-2-yl)-1H-pyrrolo[3,2-c]pyridin-3-yl]carbonyl}pyridin-3-yl)-2-[1-(propan-2-yl)-5-(trifluoromethyl)-1H-pyrazol-4-yl]acetamide]
18 | 38.7 nM | CC(C)(CO)n1cc(C(=O)c2cncc(NC(=O)Cc3ccc(F)cn3)c2)c2cncc(F)c21 [Example 93, N-(5-{[7-fluoro-1-(1-hydroxy-2-methylpropan-2-yl)-1H-pyrrolo[3,2-c]pyridin-3-yl]carbonyl}pyridin-3-yl)-2-(5-fluoropyridin-2-yl)acetamide]
19 | 7.85 nM | CC(C)(CO)n1cc(C(=O)c2cncc(NC(=O)Cc3ccc(Cl)cn3)c2)c2cncc(F)c21 [Example 3, 2-(5-Chloro-pyridin-2-yl)-N-{5-[7-fluoro-1-(2-hydroxy-1,1-dimethyl-ethyl)-1H-pyrrolo[3,2-c]pyridine-3-carbonyl]-pyridin-3-yl}-acetamide]
20 | 21.4 nM | Cc1cnn(CC(=O)Nc2cncc(C(=O)c3cn(C(C)C)c4ccncc34)c2)c1 [Example 25, 2-(4-methyl-1H-pyrazol-1-yl)-N-(5-{[1-(propan-2-yl)-1H-pyrrolo[3,2-c]pyridin-3-yl]carbonyl}pyridin-3-yl)acetamide]
21 | 192 nM | CC(C)n1cc(C(=O)c2cncc(NC(=O)Cc3ccc(F)cn3)c2)c2cnccc21 [Example 23, 2-(5-fluoropyridin-2-yl)-N-(5-{[1-(propan-2-yl)-1H-pyrrolo[3,2-c]pyridin-3-yl]carbonyl}pyridin-3-yl)acetamide]
22 | 59.5 nM | CC(C)c1cn(CC(=O)Nc2cncc(C(=O)c3cn(C(C)C)c4ccncc34)c2)nn1 [Example 123]
23 | 67 nM | CC(C)n1cc(C(=O)c2ccnc(NC(=O)Cc3ccc(F)cn3)c2)c2cnccc21 [Example 81, 2-(5-fluoropyridin-2-yl)-N-(4-{[1-(propan-2-yl)-1H-pyrrolo[3,2-c]pyridin-3-yl]carbonyl}pyridin-2-yl)acetamide]
24 | 3330 nM | CC(C)n1cc(C(=O)c2cncc(NC(=O)Cc3cn(C)cn3)c2)c2cnccc21 [Example 41, 2-(1-methyl-1H-imidazol-4-yl)-N-(5-{[1-(propan-2-yl)-1H-pyrrolo[3,2-c]pyridin-3-yl]carbonyl}pyridin-3-yl)acetamide]
25 | 96.8 nM | CC(C)c1ccnn1CC(=O)Nc1cc(C(=O)c2cn(C(C)C)c3ccncc23)ccn1 [Example 111, 2-[5-(propan-2-yl)-1H-pyrazol-1-yl]-N-(4-{[1-(propan-2-yl)-1H-pyrrolo[3,2-c]pyridin-3-yl]carbonyl}pyridin-2-yl)acetamide]
26 | 10.6 nM | Cc1cc(C(F)(F)F)nn1CC(=O)Nc1ccnc(C(=O)c2cn(C(C)C)c3ccncc23)c1 [Example 28, 2-[5-methyl-3-(trifluoromethyl)-1H-pyrazol-1-yl]-N-(2-{[1-(propan-2-yl)-1H-pyrrolo[3,2-c]pyridin-3-yl]carbonyl}pyridin-4-yl)acetamide]
27 | 5.33 nM | CC(C)(CO)n1cc(C(=O)c2cncc(NC(=O)Cn3cc(C(F)(F)F)cn3)c2)c2cncc(F)c21 [Example 4, N-{5-[7-Fluoro-1-(2-hydroxy-1,1-dimethyl-ethyl)-1H-pyrrolo[3,2-c]pyridine-3-carbonyl]-pyridin-3-yl}-2-(4-trifluoromethyl-pyrazol-1-yl)-acetamide]
28 | 51.7 nM | CC(C)n1cc(C(=O)c2cncc(NC(=O)Cc3ccc(C#N)c(C(F)(F)F)c3)c2)c2cnccc21 [Example 37, 2-[4-cyano-3-(trifluoromethyl)phenyl]-N-(5-{[1-(propan-2-yl)-1H-pyrrolo[3,2-c]pyridin-3-yl]carbonyl}pyridin-3-yl)acetamide]
29 | 2600 nM | Cc1ccnn1CC(=O)Nc1cncc(C(=O)c2cn(C(C)C)c3ccncc23)c1 [Example 135, 2-(5-methyl-1H-pyrazol-1-yl)-N-(5-{[1-(propan-2-yl)-1H-pyrrolo[3,2-c]pyridin-3-yl]carbonyl}pyridin-3-yl)acetamide]
30 | 13.8 nM | Cc1cc(C(F)(F)F)nn1CC(=O)Nc1cc(C(=O)c2cn(C(C)C)c3ccncc23)ccn1 [Example 104, 2-[5-methyl-3-(trifluoromethyl)-1H-pyrazol-1-yl]-N-(4-{[1-(propan-2-yl)-1H-pyrrolo[3,2-c]pyridin-3-yl]carbonyl}pyridin-2-yl)acetamide]
31 | 177 nM | CC(C)n1cc(C(=O)c2cc(NC(=O)Cc3cnn(C4CC4)c3C(F)(F)F)ccn2)c2cnccc21 [Example 56, 2-[1-cyclopropyl-5-(trifluoromethyl)-1H-pyrazol-4-yl]-N-(2-{[1-(propan-2-yl)-1H-pyrrolo[3,2-c]pyridin-3-yl]carbonyl}pyridin-4-yl)acetamide]
32 | 37.6 nM | CC(CO)n1cc(C(=O)c2cncc(NC(=O)Cc3ccc(Cl)cn3)c2)c2cnccc21 (single isomer, unassigned) [Example 66, 2-(5-chloropyridin-2-yl)-N-(5-{[1-(1-hydroxypropan-2-yl)-1H-pyrrolo[3,2-c]pyridin-3-yl]carbonyl}pyridin-3-yl)acetamide]
